pIC50: −log10 of the molar value.
Test system: 855422-203-R-J1-PDC complex spheroid viability
Assay: Anticancer human tumor 855422-203-R-J1-PDC patient-derived bladder carcinoma cell line growth inhibition [POLQ]
Details: for pIC50: curve of first compound; for viability, T/C: stronger effect = lower value
How it was run: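 Three-cell-type spheroids modelling solid tumor plus stroma served as the readout system; POL inhibitors were tested individually and in combination, concentration ranges set by clinical Cmax where known.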

[1] = second compound 0.0316 µM, first compound 0.0316 µM
[2] = second compound 0.0316 µM, first compound 0.1 µM
[3] = second compound 0.0316 µM, first compound 0.316 µM
[4] = second compound 0.0316 µM, first compound 1 µM
[5] = second compound 0.0316 µM, first compound 3.16 µM
[6] = second compound 0.0316 µM, first compound 10 µM
[7] = second compound 0.1 µM, first compound 0.0316 µM
[8] = second compound 0.1 µM, first compound 0.1 µM
[9] = second compound 0.1 µM, first compound 0.316 µM
[10] = second compound 0.1 µM, first compound 1 µM
[11] = second compound 0.1 µM, first compound 3.16 µM
[12] = second compound 0.1 µM, first compound 10 µM
[13] = second compound 0.316 µM, first compound 0.0316 µM
[14] = second compound 0.316 µM, first compound 0.1 µM
[15] = second compound 0.316 µM, first compound 0.316 µM
[16] = second compound 0.316 µM, first compound 1 µM
[17] = second compound 0.316 µM, first compound 3.16 µM
[18] = second compound 0.316 µM, first compound 10 µM
[19] = second compound 1 µM, first compound 0.0316 µM
[20] = second compound 1 µM, first compound 0.1 µM
[21] = second compound 1 µM, first compound 0.316 µM
[22] = second compound 1 µM, first compound 1 µM
[23] = second compound 1 µM, first compound 3.16 µM
[24] = second compound 1 µM, first compound 10 µM
[25] = second compound 3.16 µM, first compound 0.0316 µM
[26] = second compound 3.16 µM, first compound 0.1 µM
[27] = second compound 3.16 µM, first compound 0.316 µM
[28] = second compound 3.16 µM, first compound 1 µM
[29] = second compound 3.16 µM, first compound 3.16 µM
[30] = second compound 3.16 µM, first compound 10 µM
[31] = second compound 10 µM, first compound 0.0316 µM
[32] = second compound 10 µM, first compound 0.1 µM
[33] = second compound 10 µM, first compound 0.316 µM
[34] = second compound 10 µM, first compound 1 µM
[35] = second compound 10 µM, first compound 3.16 µM
[36] = second compound 10 µM, first compound 10 µM
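Also: spheroids exposed to compounds for seven days before readout.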

## CC(=O)O[C@H]1C(=O)[C@@]2(C)[C@H]([C@H](OC(=O)c3ccccc3)[C@]3(O)C[C@H](OC(=O)[C@H](O)[C@@H](NC(=O)c4ccccc4)c4ccccc4)C(C)=C1C3(C)C)[C@]1(OC(C)=O)CO[C@@H]1C[C@@H]2O + Nc1ccc(C#CCN(C(=O)Cc2ncc(C(F)(F)F)cc2C(F)(F)F)c2ccc(F)cc2)nn1
Second compound 0.0316 µM
  pIC50: > 8.02
Second compound 0.1 µM
  pIC50: > 8.02
Second compound 0.316 µM
  pIC50: > 8.02
Second compound 1 µM
  pIC50: > 8.02
Second compound 3.16 µM
  pIC50: > 8.02
Second compound 10 µM
  pIC50: > 8.02
Second compound 0.0316 µM, first compound 0.00949 µM
  viability, T/C: 9.1%
Second compound 0.0316 µM, first compound 0.03 µM
  viability, T/C: 8.18%
Second compound 0.0316 µM, first compound 0.0949 µM
  viability, T/C: 10.3%
Second compound 0.0316 µM, first compound 0.3 µM
  viability, T/C: 9.92%
Second compound 0.0316 µM, first compound 0.949 µM
  viability, T/C: 7.22%
Second compound 0.0316 µM, first compound 3 µM
  viability, T/C: 9.23%
Second compound 0.1 µM, first compound 0.00949 µM
  viability, T/C: 12.1%
Second compound 0.1 µM, first compound 0.03 µM
  viability, T/C: 8.86%
Second compound 0.1 µM, first compound 0.0949 µM
  viability, T/C: 8.29%
Second compound 0.1 µM, first compound 0.3 µM
  viability, T/C: 9.07%
Second compound 0.1 µM, first compound 0.949 µM
  viability, T/C: 6.61%
Second compound 0.1 µM, first compound 3 µM
  viability, T/C: 8.93%
Second compound 0.316 µM, first compound 0.00949 µM
  viability, T/C: 10.2%
Second compound 0.316 µM, first compound 0.03 µM
  viability, T/C: 10%
Second compound 0.316 µM, first compound 0.0949 µM
  viability, T/C: 7.73%
Second compound 0.316 µM, first compound 0.3 µM
  viability, T/C: 7.49%
Second compound 0.316 µM, first compound 0.949 µM
  viability, T/C: 7.31%
Second compound 0.316 µM, first compound 3 µM
  viability, T/C: 7.76%
Second compound 1 µM, first compound 0.00949 µM
  viability, T/C: 9.77%
Second compound 1 µM, first compound 0.03 µM
  viability, T/C: 10.3%
Second compound 1 µM, first compound 0.0949 µM
  viability, T/C: 7.55%
Second compound 1 µM, first compound 0.3 µM
  viability, T/C: 9.06%
Second compound 1 µM, first compound 0.949 µM
  viability, T/C: 7.76%
Second compound 1 µM, first compound 3 µM
  viability, T/C: 9.17%
Second compound 3.16 µM, first compound 0.00949 µM
  viability, T/C: 14.2%
Second compound 3.16 µM, first compound 0.03 µM
  viability, T/C: 8.33%
Second compound 3.16 µM, first compound 0.0949 µM
  viability, T/C: 9.73%
Second compound 3.16 µM, first compound 0.3 µM
  viability, T/C: 9.4%
Second compound 3.16 µM, first compound 0.949 µM
  viability, T/C: 12.7%
Second compound 3.16 µM, first compound 3 µM
  viability, T/C: 10.1%
Second compound 10 µM, first compound 0.00949 µM
  viability, T/C: 12.2%
Second compound 10 µM, first compound 0.03 µM
  viability, T/C: 10.5%
Second compound 10 µM, first compound 0.0949 µM
  viability, T/C: 11.7%
Second compound 10 µM, first compound 0.3 µM
  viability, T/C: 9.8%
Second compound 10 µM, first compound 0.949 µM
  viability, T/C: 7.89%
Second compound 10 µM, first compound 3 µM
  viability, T/C: 9.4%

## COc1cc(C2c3cc4c(cc3C(OC3OC5COC(C)OC5C(O)C3O)C3COC(=O)C23)OCO4)cc(OC)c1O (stereo unspecified) + Nc1ccc(C#CCN(C(=O)Cc2ncc(C(F)(F)F)cc2C(F)(F)F)c2ccc(F)cc2)nn1
Second compound 0.0316 µM
  pIC50: 6.28
Second compound 0.1 µM
  pIC50: 6.32
Second compound 0.316 µM
  pIC50: 6.35
Second compound 1 µM
  pIC50: 6.36
Second compound 3.16 µM
  pIC50: 6.47
Second compound 10 µM
  pIC50: 6.42
[1]
  viability, T/C: 120%
[2]
  viability, T/C: 127%
[3]
  viability, T/C: 78.5%
[4]
  viability, T/C: 15%
[5]
  viability, T/C: 10%
[6]
  viability, T/C: 7.23%
[7]
  viability, T/C: 108%
[8]
  viability, T/C: 164%
[9]
  viability, T/C: 71.5%
[10]
  viability, T/C: 21%
[11]
  viability, T/C: 8.67%
[12]
  viability, T/C: 4.47%
[13]
  viability, T/C: 94.4%
[14]
  viability, T/C: 137%
[15]
  viability, T/C: 66.1%
[16]
  viability, T/C: 21.8%
[17]
  viability, T/C: 10.4%
[18]
  viability, T/C: 4.7%
[19]
  viability, T/C: 92.2%
[20]
  viability, T/C: 141%
[21]
  viability, T/C: 64.8%
[22]
  viability, T/C: 23.5%
[23]
  viability, T/C: 10.1%
[24]
  viability, T/C: 4.86%
[25]
  viability, T/C: 99.3%
[26]
  viability, T/C: 135%
[27]
  viability, T/C: 52%
[28]
  viability, T/C: 20.5%
[29]
  viability, T/C: 10.7%
[30]
  viability, T/C: 4.56%
[31]
  viability, T/C: 105%
[32]
  viability, T/C: 114%
[33]
  viability, T/C: 56.5%
[34]
  viability, T/C: 19.5%
[35]
  viability, T/C: 11.1%
[36]
  viability, T/C: 5.88%

## O=c1[nH]cc(F)c(=O)[nH]1 + Nc1ccc(C#CCN(C(=O)Cc2ncc(C(F)(F)F)cc2C(F)(F)F)c2ccc(F)cc2)nn1
Second compound 0.0316 µM
  pIC50: 5.61
Second compound 0.1 µM
  pIC50: 5.67
Second compound 0.316 µM
  pIC50: 5.52
Second compound 1 µM
  pIC50: 5.62
Second compound 3.16 µM
  pIC50: 5.51
Second compound 10 µM
  pIC50: 5.56
[1]
  viability, T/C: 118%
[2]
  viability, T/C: 110%
[3]
  viability, T/C: 160%
[4]
  viability, T/C: 65.3%
[5]
  viability, T/C: 47.4%
[6]
  viability, T/C: 43.9%
[7]
  viability, T/C: 90.8%
[8]
  viability, T/C: 111%
[9]
  viability, T/C: 142%
[10]
  viability, T/C: 66.6%
[11]
  viability, T/C: 46.6%
[12]
  viability, T/C: 37.1%
[13]
  viability, T/C: 118%
[14]
  viability, T/C: 122%
[15]
  viability, T/C: 124%
[16]
  viability, T/C: 63.2%
[17]
  viability, T/C: 54%
[18]
  viability, T/C: 44.8%
[19]
  viability, T/C: 95.3%
[20]
  viability, T/C: 112%
[21]
  viability, T/C: 99.6%
[22]
  viability, T/C: 68.5%
[23]
  viability, T/C: 46.2%
[24]
  viability, T/C: 40%
[25]
  viability, T/C: 103%
[26]
  viability, T/C: 107%
[27]
  viability, T/C: 104%
[28]
  viability, T/C: 60.6%
[29]
  viability, T/C: 53.1%
[30]
  viability, T/C: 46.2%
[31]
  viability, T/C: 96.9%
[32]
  viability, T/C: 105%
[33]
  viability, T/C: 99.9%
[34]
  viability, T/C: 66.8%
[35]
  viability, T/C: 53.1%
[36]
  viability, T/C: 40.8%
